ChEMBL document CHEMBL1157244, “Triterpenoid saponins from the fruits of Caryocar glabrum” (J Nat Prod, 2006)

Key:
[1] = Toxicity in sheep erythrocytes assessed as hemolysis; assay type: cell-based, Ovis aries, Erythrocyte; details: for HD100: erythrocyte; for HC50: sheep erythrocytes, read-out: HD50 (the source's name)
[2] = Toxicity in sheep erythrocytes assessed as hemolysis at >500 ug/mL; assay type: cell-based, Ovis aries, Erythrocyte; details: read-out: Activity

Row | SMILES | HD100 [1] [µM] | HC50 [1] [µM] | hemolysis [2] [%]
1 | COC(=O)[C@H]1O[C@@H](O[C@H]2[C@@H](O)C[C@]3(C)[C@H]4CC=C5[C@@H]6CC(C)(C)CC[C@]6(C(=O)O)CC[C@@]5(C)[C@]4(C)CC[C@H]3C2(C)C)[C@H](O)[C@@H](O[C@@H]2O[C@H](CO)[C@H](O)[C@H](O)[C@H]2O)[C@@H]1O | 303 | 157 | 
2 | CC1(C)CC[C@]2(C(=O)O)CC[C@]3(C)C(=CC[C@@H]4[C@@]5(C)CC[C@H](O[C@@H]6O[C@H](C(=O)O)[C@@H](O)[C@H](O)[C@H]6O)[C@@](C)(CO)C5CC[C@]43C)[C@@H]2C1 (stereo not given in full) | 116 | 93 | 
3 | CC1(C)CC[C@]2(C(=O)O)CC[C@]3(C)C(=CC[C@@H]4[C@@]5(C)CC[C@H](O[C@@H]6O[C@H](C(=O)O)[C@@H](O)[C@H](O[C@@H]7O[C@H](CO)[C@H](O)[C@H](O)[C@H]7O)[C@H]6O)[C@@](C)(CO)[C@@H]5CC[C@]43C)[C@@H]2C1 | 93 | 45 | 
4 | CC1(C)CC[C@]2(C(=O)O[C@@H]3O[C@H](CO)[C@@H](O)[C@H](O)[C@H]3O)CC[C@]3(C)C(=CC[C@@H]4[C@@]5(C)C[C@H](O)[C@H](O[C@@H]6O[C@H](CO)[C@@H](O)[C@H](O[C@@H]7O[C@H](CO)[C@H](O)[C@H](O)[C@H]7O)[C@H]6O)[C@@](C)(CO)[C@@H]5CC[C@]43C)[C@@H]2C1 | > 513 |  | 10
5 | CC1(C)CC[C@]2(C(=O)O[C@@H]3O[C@H](CO)[C@@H](O)[C@H](O)[C@H]3O)CC[C@]3(C)C(=CC[C@@H]4[C@@]5(C)CC[C@H](O[C@@H]6O[C@H](C(=O)O)[C@@H](O)[C@H](O[C@@H]7O[C@H](CO)[C@H](O)[C@H](O)[C@H]7O)[C@H]6O)[C@@](C)(CO)[C@@H]5CC[C@]43C)[C@@H]2C1 | 514 | 309 | 
6 | CC1(C)CC[C@]2(C(=O)O)CC[C@]3(C)C(=CC[C@@H]4[C@@]5(C)C[C@H](O)[C@H](O[C@@H]6O[C@H](C(=O)O)[C@@H](O)[C@H](O[C@@H]7O[C@H](CO)[C@H](O)[C@H](O)[C@H]7O)[C@H]6O)[C@@](C)(CO)[C@@H]5CC[C@]43C)[C@@H]2C1 | 121 | 66 | 
7 | CC1(C)CC[C@]2(C(=O)O)CC[C@]3(C)C(=CC[C@@H]4[C@@]5(C)C[C@H](O)[C@H](O[C@@H]6O[C@H](CO)[C@@H](O)[C@H](O[C@@H]7O[C@H](CO)[C@H](O)[C@H](O)[C@H]7O)[C@H]6O)[C@@](C)(CO)[C@@H]5CC[C@]43C)[C@@H]2C1 | 24 | 18 | 
8 | CC1(C)CC[C@]2(C(=O)O)CC[C@]3(C)C(=CC[C@@H]4[C@@]5(C)CC[C@H](O[C@@H]6O[C@H](CO)[C@@H](O)[C@H](O[C@@H]7O[C@H](CO)[C@H](O)[C@H](O)[C@H]7O)[C@H]6O)[C@@](C)(CO)[C@@H]5CC[C@]43C)[C@@H]2C1 | 94 | 56 | 
9 | CC1(C)CC[C@]2(C(=O)O)CC[C@]3(C)C(=CC[C@@H]4[C@@]5(C)C[C@H](O)[C@H](O[C@@H]6O[C@H](C(=O)O)[C@@H](O)[C@H](O[C@@H]7O[C@H](CO)[C@H](O)[C@H](O)[C@H]7O)[C@H]6O)C(C)(C)[C@@H]5CC[C@]43C)[C@@H]2C1 | 49 | 32 | 
10 | CC1(C)CC[C@]2(C(=O)O)CC[C@]3(C)C(=CC[C@@H]4[C@@]5(C)CC[C@H](O[C@@H]6O[C@H](C(=O)O)[C@@H](O)[C@H](O[C@@H]7O[C@H](CO)[C@H](O)[C@H](O)[C@H]7O)[C@H]6O)C(C)(C)[C@@H]5CC[C@]43C)[C@@H]2C1 [GLYCOSIDE D] | 31 | 19 | 
